In ChEMBL document CHEMBL1201862, “PubChem BioAssay data set” (2004):
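Assay format: 96-well plates, 48-hour exposure. GI50 marks 50% less growth.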 Active and inactive are the calls of the source. Cut-off read from the data, not from the text of the source: active = GI50 up to about 1.1 µM and inactive = higher.

Key:
Experiment in all cases: growth of human tumour cells (NCI), 48 h
ACHN = test system: ACHN
CAKI-1 = test system: CAKI-1
EKVX = test system: EKVX
HCT-15 = test system: HCT-15
HL-60 = test system: HL-60
HOP-62 = test system: HOP-62
Hs-578T = test system: Hs-578T
KM12 = test system: KM12
MDA-MB-231 = test system: MDA-MB-231
NCI-H460 = test system: NCI-H460
NCI-H522 = test system: NCI-H522
NCI/ADR-RES = test system: NCI/ADR-RES
OVCAR-3 = test system: OVCAR-3
PC-3 = test system: PC-3
SF-295 = test system: SF-295
SK-MEL-28 = test system: SK-MEL-28
SK-MEL-5 = test system: SK-MEL-5
SR = test system: SR
CCRF-CEM = test system: CCRF-CEM
MDA-N = test system: MDA-N

CCSc1nc(N/N=C/c2cccs2)c2cnn(CO)c2n1
GI50 (ACHN): 6.07 µM (inactive)
GI50 (CAKI-1): 2.66 µM (inactive)
GI50 (EKVX): 9.08 µM (inactive)
GI50 (HCT-15): 4.88 µM
GI50 (HL-60): 5.15 µM (inactive)
GI50 (HOP-62): 4.25 µM (inactive)
GI50 (Hs-578T): 4.31 µM (inactive)
GI50 (KM12): 0.408 µM (active)
GI50 (MDA-MB-231): 18.3 µM (inactive)
GI50 (NCI-H460): 5.11 µM (inactive)
GI50 (NCI-H522): 3.71 µM (inactive)
GI50 (NCI/ADR-RES): 3.91 µM (inactive)
GI50 (OVCAR-3): 5.86 µM (inactive)
GI50 (PC-3): 6.58 µM (inactive)
GI50 (SF-295): 8.13 µM (inactive)
GI50 (SK-MEL-28): 14.9 µM (inactive)
GI50 (SK-MEL-5): 3.46 µM (inactive)
GI50 (SR): 5.9 µM (inactive)

N#CCCN(C(=O)Nc1ccccc1)[C@H]1CCCC[C@@H]1N(C(=O)Nc1ccccc1)c1ccccc1
GI50 (ACHN): > 100 µM (inactive)
GI50 (CAKI-1): > 100 µM (inactive)
GI50 (CCRF-CEM): 30.1 µM (inactive)
GI50 (EKVX): 65.5 µM (inactive)
GI50 (HCT-15): > 100 µM
GI50 (HOP-62): > 100 µM (inactive)
GI50 (KM12): 32.8 µM (inactive)
GI50 (MDA-MB-231): > 100 µM (inactive)
GI50 (MDA-N): > 100 µM (inactive)
GI50 (NCI-H460): 48.2 µM (inactive)
GI50 (NCI-H522): 71.1 µM (inactive)
GI50 (NCI/ADR-RES): > 100 µM (inactive)
GI50 (OVCAR-3): > 100 µM (inactive)
GI50 (PC-3): 48.1 µM (inactive)
GI50 (SF-295): 55.7 µM (inactive)
GI50 (SK-MEL-28): > 100 µM (inactive)
GI50 (SK-MEL-5): > 100 µM (inactive)
GI50 (SR): 19.3 µM (inactive)

Cn1c2ccccc2c2c3c(c4c5ccccc5n(C)c4c21)C(=O)N(c1ccccc1)C3=O
GI50 (ACHN): > 100 µM (inactive)
GI50 (CAKI-1): > 100 µM (inactive)
GI50 (CCRF-CEM): > 100 µM (inactive)
GI50 (EKVX): > 100 µM (inactive)
GI50 (HCT-15): > 100 µM
GI50 (HOP-62): > 100 µM (inactive)
GI50 (KM12): > 100 µM (inactive)
GI50 (MDA-MB-231): > 100 µM (inactive)
GI50 (MDA-N): > 100 µM (inactive)
GI50 (NCI-H460): > 100 µM (inactive)
GI50 (NCI-H522): 44.4 µM (inactive)
GI50 (NCI/ADR-RES): > 100 µM (inactive)
GI50 (OVCAR-3): > 100 µM (inactive)
GI50 (PC-3): > 100 µM (inactive)
GI50 (SF-295): > 100 µM (inactive)
GI50 (SK-MEL-28): > 100 µM (inactive)
GI50 (SK-MEL-5): > 100 µM (inactive)
GI50 (SR): > 100 µM (inactive)

CCCCCCc1cc(C=O)sc1-c1ccc(-c2sc(-c3ccc(-c4ccc(-c5cc(CCCCCC)c(-c6ccc(-c7sc(C=O)cc7CCCCCC)s6)s5)s4)s3)cc2CCCCCC)s1
GI50 (ACHN): > 100 µM (inactive)
GI50 (CAKI-1): > 100 µM (inactive)
GI50 (CCRF-CEM): > 100 µM (inactive)
GI50 (EKVX): > 100 µM (inactive)
GI50 (HCT-15): > 100 µM
GI50 (HL-60): > 100 µM (inactive)
GI50 (HOP-62): > 100 µM (inactive)
GI50 (KM12): > 100 µM (inactive)
GI50 (MDA-MB-231): > 100 µM (inactive)
GI50 (MDA-N): > 100 µM (inactive)
GI50 (NCI-H460): > 100 µM (inactive)
GI50 (NCI-H522): 91.4 µM (inactive)
GI50 (NCI/ADR-RES): > 100 µM (inactive)
GI50 (OVCAR-3): > 100 µM (inactive)
GI50 (PC-3): > 100 µM (inactive)
GI50 (SF-295): > 100 µM (inactive)
GI50 (SK-MEL-28): > 100 µM (inactive)
GI50 (SK-MEL-5): > 100 µM (inactive)
GI50 (SR): > 100 µM (inactive)

C=C1C(=O)OC2CC(C)C3(O)CCC(=O)C3(C)CC12 (stereo not given)
GI50 (ACHN): 17.5 µM (inactive)
GI50 (CAKI-1): 17.5 µM (inactive)
GI50 (CCRF-CEM): 33.8 µM (inactive)
GI50 (EKVX): 27.2 µM (inactive)
GI50 (HCT-15): 14.9 µM
GI50 (HL-60): 18 µM (inactive)
GI50 (HOP-62): 28.2 µM (inactive)
GI50 (Hs-578T): 25.9 µM (inactive)
GI50 (KM12): 20.7 µM (inactive)
GI50 (MDA-MB-231): 26 µM (inactive)
GI50 (NCI-H522): 14.3 µM (inactive)
GI50 (NCI/ADR-RES): 32.4 µM (inactive)
GI50 (OVCAR-3): 16 µM (inactive)
GI50 (PC-3): 49 µM (inactive)
GI50 (SF-295): 40.5 µM (inactive)
GI50 (SK-MEL-28): 54.8 µM (inactive)
GI50 (SK-MEL-5): 36.6 µM (inactive)
GI50 (SR): 23.2 µM (inactive)

O=C1c2c(O)cc(O)cc2C(C2OC(CO)C(O)C(O)C2O)c2cc(CO)cc(O)c21 (stereo not given)
GI50 (ACHN): > 100 µM (inactive)
GI50 (CCRF-CEM): > 10 µM (inactive)
GI50 (EKVX): > 100 µM (inactive)
GI50 (HCT-15): > 100 µM
GI50 (HL-60): > 100 µM (inactive)
GI50 (HOP-62): > 100 µM (inactive)
GI50 (MDA-MB-231): > 100 µM (inactive)
GI50 (MDA-N): > 100 µM (inactive)
GI50 (NCI-H460): > 100 µM (inactive)
GI50 (NCI/ADR-RES): > 100 µM (inactive)
GI50 (OVCAR-3): > 100 µM (inactive)
GI50 (PC-3): > 100 µM (inactive)
GI50 (SF-295): > 100 µM (inactive)
GI50 (SK-MEL-28): > 100 µM (inactive)
GI50 (SK-MEL-5): > 100 µM (inactive)
GI50 (SR): > 100 µM (inactive)

CC(C)(OCc1ccccc1)c1ccccc1P(c1ccccc1)c1ccccc1
GI50 (ACHN): 44.8 µM (inactive)
GI50 (CAKI-1): 31.7 µM (inactive)
GI50 (EKVX): 32.9 µM (inactive)
GI50 (HCT-15): 36.4 µM
GI50 (HL-60): 13.5 µM (inactive)
GI50 (HOP-62): 60 µM (inactive)
GI50 (Hs-578T): 47.9 µM (inactive)
GI50 (KM12): 23.1 µM (inactive)
GI50 (MDA-MB-231): 65 µM (inactive)
GI50 (NCI-H460): 49.7 µM (inactive)
GI50 (NCI-H522): 42.8 µM (inactive)
GI50 (NCI/ADR-RES): 50.7 µM (inactive)
GI50 (OVCAR-3): 46.9 µM (inactive)
GI50 (PC-3): 33.3 µM (inactive)
GI50 (SF-295): 44.8 µM (inactive)
GI50 (SK-MEL-28): 42.2 µM (inactive)
GI50 (SK-MEL-5): 35 µM (inactive)
GI50 (SR): 34.8 µM (inactive)

Cn1c(C(C#N)c2nc(Cl)ncc2Br)nc2ccccc21 (stereo not given)
GI50 (ACHN): > 100 µM (inactive)
GI50 (CAKI-1): > 100 µM (inactive)
GI50 (EKVX): > 100 µM (inactive)
GI50 (HCT-15): > 100 µM
GI50 (HOP-62): > 100 µM (inactive)
GI50 (KM12): > 100 µM (inactive)
GI50 (MDA-MB-231): > 100 µM (inactive)
GI50 (MDA-N): > 100 µM (inactive)
GI50 (NCI-H460): > 100 µM (inactive)
GI50 (NCI-H522): > 100 µM (inactive)
GI50 (NCI/ADR-RES): > 100 µM (inactive)
GI50 (OVCAR-3): > 100 µM (inactive)
GI50 (SF-295): > 100 µM (inactive)
GI50 (SK-MEL-28): > 100 µM (inactive)
GI50 (SK-MEL-5): > 100 µM (inactive)
